For test [1] the following is noted: threo versus erythro methylphenidate; cited from earlier work.
In test [2] the test system is erythropoietin (EPO). Kind of test: Erythropoietin (EPO) release from HepG2 cells (ELISA). Type of test: cell-based, human. The following applies: HepG2, hypoxia (5% CO2), 24 hours; Cpd II 15 μg/ml, LY 294002 25 μM; hypoxia alone 108.39 ± 2.81. Here is the method: HepG2 is a human hepatic cancer cell line, which was obtained from ATCC. HepG2 cells were grown to confluence in 25 cm^2 flasks in IMDM medium containing 10% FCS. Then, the cells were trypsinized as follows. The medium in each flask was aspirated and replaced with 5 ml of 0.025% trypsin/EDTA (Cambrex). The cells were monitored on a microscope until they no longer adhered to the flasks. Then, 5 ml of trypsin neutralizing solution (TNS) (Cambrex) were added to each flask to stop the reaction. The cell suspension was centrifuged at 1000 rpm for 10 minutes, and the supernatants were aspirated. The cells were reconstituted in fresh medium and counted. Then, 4 ml of the cell suspension in medium containing at 1.22×10^6 cells/ml were mixed with an additional 1 ml of medium. Next, 0.5 ml/well of the resulting cell suspension was added to wells in a 24-well culture plate (about 500,000 cells/well). The cells were treated as indicated in Table 5 below and incubated for 24 hours at 37° C., with or without 5% CO2. The supernatants were removed from the wells and centrifuged to remove debris. Next, the supernatants were analyzed for erythropoietin (EPO) production. EPO was measured by ELISA using a kit obtained from R & D Systems, Minneapolis, Minn. (catalog no. DE900) following the manufacturer's instructions.
On the technique in general: An ELISA detects its analyte on a solid surface through an enzyme-linked reagent.

Test [3] relates to NFκB. In words: Activated NFκB in TNFα- or VEGF-treated HIAECs (TransAM assay). Type of test: cell-based. The following applies: Homo sapiens, TNFα 10 ng/ml, Cpd II 15 μg/ml, LY 294002 10 μM, read-out: Percent Inhibition (NFκB). On the procedure: Passage 8 (human iliac artery endothelial cells (HIAECs) (obtained from ATCC; catalog no. CC-2545) were grown to confluence in 25 cm^2 flasks in EGM-2 medium. Eighteen hours prior to the experiment, the medium was replaced with EGM-2 medium containing 0.1% FCS plus heparin, GA1000 (gentamycin) and bovine pituitary extract (all from Cambrex) to place the cells in a resting state. To perform the experiment the medium was aspirated from the flasks, and the following additives were added to the flasks in fresh medium (total volume of 5 ml/flask): 15 μg/ml of the compound of formula II (Cpd II) or 10 μM LY 294002. The flasks were incubated 2 hours at 37° C., 5% CO2. After this incubation, VEGF or TNFα was added to give a final concentration 10 ng/ml, and the flasks were incubated for an additional 30 minutes. Then, the amount of NFκB was determined using a TransAM™ NFκB p65/NFκB p50 Transcription Factor Assay Kit and a Nuclear Extract Kit from Active Motif North America, Carlsbad, Calif., as described in Example 12.

In test [4] the test system is TNFα. Kind of test: TNFα release from LPS-stimulated THP-1 monocytes (ELISA). Format: cell-based. The following applies: THP-1, LPS 200 ng/ml, 24 hours; Cpd II 15 μg/ml, Dex 10 μM. Here is the method:
(§1) THP-1 is a monocyte cell line obtained from American Type Culture Collection (ATCC) (catalog no. TIB-202). […] After 1 hour, lipopolysaccharide (LPS) (obtained from Sigma) was added to the cultures to give a final concentration of 200 ng/ml, and the cells were then incubated for an additional 4 hours or for an additional 24 hours. After the incubation, the cells were centrifuged, and the supernatants were collected. The concentrations of IL-8 and TNFα in the supernatants were determined by ELISA.
The TNFα ELISA was performed as described in Example 2.

For test [5], the system named is TCR-positive cells. In words: Annexin staining of TCR-positive cells (flow cytometry, cell death). Type of test: cell-based, human. The following applies: PHA plus dexamethasone 10 μM. Here is the method:
After this incubation, PHA was added to give a final concentration of 5 μg/ml, and the cells were incubated for an additional 72 hours at 37° C., 5% CO2. All cultures were performed in triplicate. Cells were then removed by centrifugation at 1000 rpm for 10 minutes.
The cells were further analyzed by flow cytometry Annexin was used to determine populations of dead or dying cells. Anti-CD69 antibody was used to establish the level of cellular activation. Antibody to T-cell receptor αβ (TCR) was also used. Recombinant Annexin 5 (PE and FITC conjugates) and the antibodies were all purchase from Caltag (Burlingham, Calif.) and used following the manufacturer's recommendations.
In general terms: In flow cytometry, cells or beads pass a laser one at a time.

The subject of test [6] is IL-8. In words: IL-8 release from LPS-stimulated THP-1 monocytes (ELISA). Type of test: cell-based. The following applies: THP-1, LPS 200 ng/ml, 24 hours; Cpd II 15 μg/ml, Dex 10 μM. Here is the method:
as §1
The concentrations of IL-8 in the supernatants were determined by ELISA performed as described in Example 4.

Each structure is given as a SMILES string.

Turning to `COC(=O)C(c1ccccc1)C1CCCCN1` (single isomer, unassigned) [threo diastereomer], in test [1], the “potency relative to the erythro diastereomer” value was “about 80 times”.
In general, inhibition refers to how much of the control response was suppressed. Regarding `O=c1cc(N2CCOCC2)oc2c(-c3ccccc3)cccc12` [LY 294002, reference compound], the “Mean Units/ml EPO” value in test [2] turned out to be 52.99 ± 1.04 Units/ml. The inhibition at 10 µM in test [3] was 10%.
As to `C[C@@H]1C[C@H]2[C@@H]3CCC4=CC(=O)C=C[C@]4(C)[C@@]3(F)[C@@H](O)C[C@]2(C)[C@@]1(O)C(=O)CO` [dexamethasone, reference compound], the “Mean TNFα Concentration” value in test [4] turned out to be 94.759 ± 8.755 pg/mL. Moreover, the “Annexin staining of TCR-positive cells” value in test [5] is 48%. Besides, the “Mean IL-8 Concentration” value in test [6] was found to be 2300.00 ± 283.41 pg/mL.

(Values after patent publication US8076485B2, “Methylphenidate derivatives and uses of them” (priority 2005, dated 2011).)
